Test results: the supplement of paper PMC11061612

Key:
Experiment in all cases: Bliss excess, mean over the matrix (fraction); higher = more synergy
[1] = tested on: 769-P (Kidney Carcinoma)
Procedure, shortened: (§1)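 Bliss excess equals the observed combination effect minus the expected value EA + EB − EA·EB, where EA and EB are the effects of each agent alone. Combination Emax is the second-highest inhibition within the matrix. Inhibition was scaled from CellTiter-Glo 2.0 luminescence, with 0 set by vehicle wells and 1 by blank wells, after 72 hours of two-drug dosing of cells plated in 1536-well plates.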

[2] = tested on: A204 (Rhabdomyosarcoma)
Procedure, shortened: as §1

[3] = tested on: A253 (Head and Neck Carcinoma)
Procedure, shortened: as §1

[4] = tested on: A2780 (Ovarian Carcinoma)
Procedure, shortened: as §1

[5] = tested on: CESS (Acute Myeloid Leukemia)
Procedure, shortened: as §1

[6] = tested on: COLO-792 (Melanoma)
Procedure, shortened: as §1

[7] = tested on: DU-4475 (Breast Carcinoma)
Procedure, shortened: as §1

[8] = tested on: GA-10 (Burkitt's Lymphoma)
Procedure, shortened: as §1

[9] = tested on: GCT (Other Solid Carcinomas)
Procedure, shortened: as §1

[10] = tested on: IM-9 (Non-Cancerous)
Procedure, shortened: as §1

[11] = tested on: JHU-022 (Oral Cavity Carcinoma)
Procedure, shortened: as §1

[12] = tested on: JVM-2 (B-Cell Non-Hodgkin's Lymphoma)
Procedure, shortened: as §1

[13] = tested on: KP-N-YN (Neuroblastoma)
Procedure, shortened: as §1

[14] = tested on: KYSE-220 (Esophageal Squamous Cell Carcinoma)
Procedure, shortened: as §1

[15] = tested on: LS-411N (Colorectal Carcinoma)
Procedure, shortened: as §1

[16] = tested on: MHH-ES-1 (Ewing's Sarcoma)
Procedure, shortened: as §1

[17] = tested on: NCI-H1703 (Squamous Cell Lung Carcinoma)
Procedure, shortened: as §1

[18] = tested on: NCI-H2228 (Lung Adenocarcinoma)
Procedure, shortened: as §1

[19] = tested on: NCI-H716 (Colorectal Carcinoma)
Procedure, shortened: as §1

[20] = tested on: OACp4C (Esophageal Adenocarcinoma)
Procedure, shortened: as §1

| SMILES | Bliss excess [1] | Bliss excess [2] | Bliss excess [3] | Bliss excess [4] | Bliss excess [5] | Bliss excess [6] | Bliss excess [7] | Bliss excess [8] | Bliss excess [9] | Bliss excess [10] | Bliss excess [11] | Bliss excess [12] | Bliss excess [13] | Bliss excess [14] | Bliss excess [15] | Bliss excess [16] | Bliss excess [17] | Bliss excess [18] | Bliss excess [19] | Bliss excess [20] |
| --- | --- | --- | --- | --- | --- | --- | --- | --- | --- | --- | --- | --- | --- | --- | --- | --- | --- | --- | --- | --- |
| CN(C)CCCOc1ccc(-c2ccc3ncc4c(c3c2)n(C2CCOCC2)c(=O)n4C)cn1 [AZD0156] + C=CCn1c(=O)c2cnc(Nc3ccc(N4CCN(C)CC4)cc3)nc2n1-c1cccc(C(C)(C)O)n1 [AZD1775] (first compound max 1 µM, partner max 1 µM) | -0.0025 | -0.0545 | -0.0389 | -0.0284 | -0.0059 | -0.017 | -0.0036 | 0.026 | -0.0811 | 0.007 | -0.0446 | -0.0372 | -0.0161 | -0.0432 | -0.0042 | -0.0402 | -0.051 | -0.0934 | 0.022 | -0.0245 |
| CN(C)CCCOc1ccc(-c2ccc3ncc4c(c3c2)n(C2CCOCC2)c(=O)n4C)cn1 [AZD0156] + CCN(CCO)CCCOc1ccc2c(Nc3cc(CC(=O)Nc4cccc(F)c4)[nH]n3)ncnc2c1 [AZD2811] (first compound max 1 µM, 7x7, partner max 1 µM) | -0.0343 | -0.0335 | -0.0119 | 0.0336 | 0.0178 | 0.0167 | -0.0135 | 0.0158 | -0.0126 | -0.0416 | -0.0143 | 0.0105 | 0.0037 | -0.0095 | -0.0168 | 0.0376 | 0.0059 | -0.0223 | -0.0063 | 0.0091 |
| CN(C)CCCOc1ccc(-c2ccc3ncc4c(c3c2)n(C2CCOCC2)c(=O)n4C)cn1 [AZD0156] + C[C@@H]1COCCN1C2=NC(=NC(=C2)C3(CC3)[S@](=N)(=O)C)C4=C5C=CNC5=NC=C4 [AZD6738] (first compound max 1 µM, 7x7, partner max 10 µM) | 0.0253 | -0.038 | 0.0145 | -0.0114 | 0.0386 | -0.0297 | -0.0587 | 0.0921 | 0.0062 | 0.05 | -0.0103 | 0.0025 | 0.0249 | 0.0134 | -0.0145 | 0.0361 | -0.0341 | -0.024 | 0.0459 | 0.0169 |
| CN(C)CCCOc1ccc(-c2ccc3ncc4c(c3c2)n(C2CCOCC2)c(=O)n4C)cn1 [AZD0156] + O=C(c1cc(Cc2n[nH]c(=O)c3ccccc23)ccc1F)N1CCN(C(=O)C2CC2)CC1 [Olaparib] (first compound max 3 µM, partner max 3 µM) | -0.0148 | -0.0255 | 0.0536 | 0.198 | 0.075 | 0.0844 | 0.117 | 0.131 | 0.0068 | 0.275 | -0.0079 | 0.0457 | – | 0.191 | 0.0922 | 0.148 | 0.0821 | 0.0272 | 0.002 | -0.0005 |
| C=CCn1c(=O)c2cnc(Nc3ccc(N4CCN(C)CC4)cc3)nc2n1-c1cccc(C(C)(C)O)n1 [AZD1775] + C1CN(CCC1(C(=O)N[C@@H](CCO)C2=CC=C(C=C2)Cl)N)C3=NC=NC4=C3C=CN4 [Capivasertib] (first compound max 3 µM, partner max 3 µM) | -0.0475 | -0.0131 | 0.0248 | 0.0361 | -0.0359 | 0.0596 | 0.0203 | 0.0431 | 0.004 | -0.0157 | -0.022 | -0.0591 | – | -0.0206 | -0.0551 | -0.034 | 0.0131 | -0.0181 | -0.034 | 0.0005 |
| C=CCn1c(=O)c2cnc(Nc3ccc(N4CCN(C)CC4)cc3)nc2n1-c1cccc(C(C)(C)O)n1 [AZD1775] + C[C@@H]1COCCN1C2=NC(=NC(=C2)C3(CC3)[S@](=N)(=O)C)C4=C5C=CNC5=NC=C4 [AZD6738] (first compound max 1 µM, partner max 10 µM) | 0.0092 | -0.0421 | 0.0764 | 0.0221 | 0.0388 | 0.0941 | 0.0549 | 0.0096 | 0.0157 | 0.0274 | -0.0276 | 0.0203 | -0.005 | 0.0242 | 0.0732 | -0.0135 | 0.0263 | -0.0399 | -0.0004 | -0.028 |
| C=CCn1c(=O)c2cnc(Nc3ccc(N4CCN(C)CC4)cc3)nc2n1-c1cccc(C(C)(C)O)n1 [AZD1775] + O=C(c1cc(Cc2n[nH]c(=O)c3ccccc23)ccc1F)N1CCN(C(=O)C2CC2)CC1 [Olaparib] (first compound max 1 µM, partner max 10 µM) | -0.0578 | -0.0881 | 0.0364 | -0.0256 | -0.0054 | -0.0241 | 0.0395 | -0.0462 | -0.0327 | -0.0305 | -0.0257 | 0.0055 | -0.144 | -0.0428 | -0.0608 | -0.0196 | -0.0267 | 0.0107 | -0.0695 | -0.055 |
| CCN(CCO)CCCOc1ccc2c(Nc3cc(CC(=O)Nc4cccc(F)c4)[nH]n3)ncnc2c1 [AZD2811] + C=CCn1c(=O)c2cnc(Nc3ccc(N4CCN(C)CC4)cc3)nc2n1-c1cccc(C(C)(C)O)n1 [AZD1775] (first compound max 1 µM, partner max 1 µM) | -0.0267 | 0.0168 | 0.0566 | 0.088 | 0.0173 | 0.043 | 0.0523 | 0.0303 | -0.0211 | -0.0297 | -0.0217 | 0.0686 | -0.027 | -0.0225 | -0.0174 | 0.0089 | -0.0453 | 0.0112 | 0.0847 | -0.0436 |
| CN(CCO)CC[C@H](CSc1ccccc1)Nc1ccc(S(=O)(=O)NC(=O)c2ccc(N3CCC([C@@H](O)c4ccccc4-c4ccc(Cl)cc4)CC3)cc2)cc1S(=O)(=O)C(F)(F)F [AZD4320] + CN(C)CCCOc1ccc(-c2ccc3ncc4c(c3c2)n(C2CCOCC2)c(=O)n4C)cn1 [AZD0156] (first compound max 1 µM, 7x7, partner max 1 µM) | -0.0444 | -0.0468 | 0.0114 | -0.0519 | -0.0814 | – | -0.0498 | 0.0026 | -0.0401 | -0.0621 | -0.0584 | 0.0248 | -0.0064 | -0.0385 | -0.0009 | -0.0062 | -0.0127 | -0.0225 | -0.0214 | -0.0257 |
| Cc1c2c(nn1C)CSCc1cc(n(C)n1)CSc1cc(c3ccccc3c1)OCCCc1c(C(=O)O)n(C)c3c-2c(Cl)ccc13 [AZD5991] + C=CCn1c(=O)c2cnc(Nc3ccc(N4CCN(C)CC4)cc3)nc2n1-c1cccc(C(C)(C)O)n1 [AZD1775] (first compound max 1 µM, partner max 1 µM) | -0.071 | 0.0348 | 0.0398 | -0.0313 | -0.0098 | 0.0348 | -0.0582 | -0.053 | 0.0301 | -0.054 | -0.0072 | -0.0165 | -0.0247 | 0.0181 | 0.0376 | -0.0496 | -0.0214 | 0.0114 | – | 0.0186 |
| Cc1c2c(nn1C)CSCc1cc(n(C)n1)CSc1cc(c3ccccc3c1)OCCCc1c(C(=O)O)n(C)c3c-2c(Cl)ccc13 [AZD5991] + Cn1cnc2c(F)c(Nc3ccc(Br)cc3Cl)c(C(=O)NOCCO)cc21 [Selumetinib] (first compound max 1 µM, 7x7, partner max 3 µM) | -0.035 | -0.0355 | 0.0716 | -0.0361 | – | 0.0234 | -0.0018 | 0.0086 | 0.0058 | 0.0092 | 0.0466 | 0.0529 | -0.0059 | 0.0119 | 0.0493 | -0.0127 | -0.0087 | 0.0038 | 0.0278 | 0.143 |
| CS(=O)(=O)CCNCc1ccc(-c2ccc3ncnc(Nc4ccc(OCc5cccc(F)c5)c(Cl)c4)c3c2)o1 [Lapatinib] + NC1(c2ccc(-c3nc4ccn5c(=O)[nH]nc5c4cc3-c3ccccc3)cc2)CCC1 [MK-2206] (first compound max 10 µM, 7x7, partner max 10 µM) | 0.0372 | – | – | -0.027 | – | – | 0.0428 | – | – | 0.0096 | -0.0585 | – | 0.0876 | -0.0099 | -0.0339 | 0.0191 | -0.0136 | – | – | – |
| CCc1c2c(nc3ccc(O)cc13)-c1cc3c(c(=O)n1C2)COC(=O)[C@]3(O)CC [SN-38] + O=C(c1cc(Cc2n[nH]c(=O)c3ccccc23)ccc1F)N1CCN(C(=O)C2CC2)CC1 [Olaparib] (first compound max 0.3 µM, 7x7, partner max 10 µM) | 0.0592 | – | 0.0223 | 0.0545 | 0.0785 | 0.0356 | -0.0271 | – | 0.103 | 0.0871 | 0.0415 | 0.115 | -0.0038 | 0.0078 | -0.012 | 0.0533 | 0.0271 | – | – | 0.0413 |
| Cc1nc(-c2cn3c(n2)-c2ccc(-c4cnn(C(C)(C)C(N)=O)c4)cc2OCC3)n(C(C)C)n1 [Taselisib] + O=C(Nc1ccc2[nH]nc(-c3ccncc3)c2c1)[C@@H]1CCN(CC(=O)N2CCN(c3ccc(-c4ncccn4)cc3)CC2)C1 [SCH772984] (first compound max 10 µM, 7x7, partner max 5 µM) | 0.0852 | – | – | -0.0087 | – | – | – | – | – | -0.0407 | -0.0001 | – | 0.0278 | 0.116 | – | 0.102 | -0.0292 | – | – | – |
| CC1(C)CCC(CN2CCN(c3ccc(C(=O)NS(=O)(=O)c4ccc(NCC5CCOCC5)c([N+](=O)[O-])c4)c(Oc4cnc5[nH]ccc5c4)c3)CC2)=C(c2ccc(Cl)cc2)C1 [Venetoclax] + CS(=O)(=O)CCNCc1ccc(-c2ccc3ncnc(Nc4ccc(OCc5cccc(F)c5)c(Cl)c4)c3c2)o1 [Lapatinib] (first compound max 1 µM, 7x7, partner max 10 µM) | 0.0871 | – | – | -0.0363 | – | – | – | – | – | 0.0902 | -0.0551 | – | -0.0157 | -0.0233 | – | 0.0086 | 0.0019 | – | – | – |
